Source: ChEMBL document CHEMBL1201862, “PubChem BioAssay data set” (2004)
Active and inactive are the calls of the source.

Experiments:
[1] = biological target: Cytochrome P450 3A4 (Homo sapiens, UniProt P08684);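 further: CYP3A4 tested as one member of a cytochrome P450 panel screen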
[2] = biological target: Cytochrome P450 2C9 (Homo sapiens, UniProt P11712)
[3] = biological target: T1, Cytochrome P450 1A2 (Homo sapiens, UniProt P05177);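 further: PubChem cytochrome P450 panel assay, CYP1A2 panel member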
T1 sequence (P05177 whole entry): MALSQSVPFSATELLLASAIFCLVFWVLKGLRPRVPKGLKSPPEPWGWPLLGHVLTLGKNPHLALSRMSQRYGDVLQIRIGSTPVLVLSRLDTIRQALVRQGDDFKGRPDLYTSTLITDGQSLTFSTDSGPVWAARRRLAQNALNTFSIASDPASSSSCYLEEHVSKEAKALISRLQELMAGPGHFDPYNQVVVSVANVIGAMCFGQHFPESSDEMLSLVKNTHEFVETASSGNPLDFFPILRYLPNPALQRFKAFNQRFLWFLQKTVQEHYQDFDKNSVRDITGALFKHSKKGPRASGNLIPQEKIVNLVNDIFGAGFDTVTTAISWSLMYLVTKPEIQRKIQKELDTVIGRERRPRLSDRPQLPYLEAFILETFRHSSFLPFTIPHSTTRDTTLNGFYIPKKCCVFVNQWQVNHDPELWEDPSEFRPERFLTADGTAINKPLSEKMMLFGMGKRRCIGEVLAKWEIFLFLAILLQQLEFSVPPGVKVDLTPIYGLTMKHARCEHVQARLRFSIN

[4] = Luminescence Cell-Based Dose Retest to Confirm Inhibitors of Cancer Stem Cells. [Related pubchem assays (depositor defined):AID2717, AID2721]; format: functional; details: Homo sapiens
[5] = test system: Streptococcus sp. 'group A'; assay: growth inhibition of control SK(-) GAS strain, dose response, counter-screen for streptokinase expression inhibitor project, luminescence, kanamycin, BacTiterGlo, confirmation (AID 1900); format: functional, organism-based
[6] = biological target: T2, Streptokinase A (Streptococcus pyogenes serotype M1, UniProt P10520); assay: S. pyogenes streptokinase expression inhibitors, potency, dose response, plasminogen activation absorbance, OD405 (AID 1914); format: functional, Streptococcus pyogenes M1 GAS;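 further: secreted streptokinase activity via plasminogen activation per viability signal from cell pellet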
T2 sequence (P10520 whole entry): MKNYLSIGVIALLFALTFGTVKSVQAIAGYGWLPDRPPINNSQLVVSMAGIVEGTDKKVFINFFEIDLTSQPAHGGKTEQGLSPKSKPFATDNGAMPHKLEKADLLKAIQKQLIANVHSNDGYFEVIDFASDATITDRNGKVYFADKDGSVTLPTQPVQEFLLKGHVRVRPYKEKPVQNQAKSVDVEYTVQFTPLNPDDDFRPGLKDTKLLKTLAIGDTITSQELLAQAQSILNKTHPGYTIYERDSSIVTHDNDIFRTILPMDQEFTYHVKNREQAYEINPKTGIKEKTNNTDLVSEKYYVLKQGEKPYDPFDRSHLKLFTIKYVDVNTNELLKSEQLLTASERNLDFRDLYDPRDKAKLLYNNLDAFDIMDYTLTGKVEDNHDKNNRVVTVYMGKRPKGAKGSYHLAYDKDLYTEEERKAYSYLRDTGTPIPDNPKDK

[7] = test system: Streptococcus; assay: Group A Streptococcus viability loss, dose response, counter-screen for streptokinase expression inhibitor project, luminescence, BacTiterGlo (AID 1915); format: functional, organism-based;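 further: potency for reduction of bacterial viability or growth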
[8] = biological target: Cytochrome P450 2C19 (Homo sapiens, UniProt P33261); assay: Cytochrome panel assay with activity outcomes. Panel member name: p450-cyp2c19 Compounds with AC50 equal or less than 10 uM are considered active; format: functional; details: read-out: AC50
Sequence of Cytochrome P450 2C19 (P33261 whole entry): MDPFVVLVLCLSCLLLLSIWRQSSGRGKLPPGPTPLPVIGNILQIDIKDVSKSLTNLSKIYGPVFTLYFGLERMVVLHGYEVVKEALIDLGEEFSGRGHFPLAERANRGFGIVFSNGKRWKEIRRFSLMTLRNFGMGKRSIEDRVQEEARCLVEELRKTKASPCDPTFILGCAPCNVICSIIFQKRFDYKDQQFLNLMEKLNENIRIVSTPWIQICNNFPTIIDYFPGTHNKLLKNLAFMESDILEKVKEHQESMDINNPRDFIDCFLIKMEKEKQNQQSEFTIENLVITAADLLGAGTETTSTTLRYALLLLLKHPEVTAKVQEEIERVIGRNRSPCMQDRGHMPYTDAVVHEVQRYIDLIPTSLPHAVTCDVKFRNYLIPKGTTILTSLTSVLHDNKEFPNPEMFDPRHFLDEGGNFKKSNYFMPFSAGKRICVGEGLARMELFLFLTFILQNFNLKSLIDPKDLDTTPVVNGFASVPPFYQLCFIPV

[9] = biological target: Cytochrome P450 2D6 (Homo sapiens, UniProt P10635);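 further: CYP2D6 member of a cytochrome P450 panel assay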
Sequence of Cytochrome P450 2D6 (P10635 whole entry): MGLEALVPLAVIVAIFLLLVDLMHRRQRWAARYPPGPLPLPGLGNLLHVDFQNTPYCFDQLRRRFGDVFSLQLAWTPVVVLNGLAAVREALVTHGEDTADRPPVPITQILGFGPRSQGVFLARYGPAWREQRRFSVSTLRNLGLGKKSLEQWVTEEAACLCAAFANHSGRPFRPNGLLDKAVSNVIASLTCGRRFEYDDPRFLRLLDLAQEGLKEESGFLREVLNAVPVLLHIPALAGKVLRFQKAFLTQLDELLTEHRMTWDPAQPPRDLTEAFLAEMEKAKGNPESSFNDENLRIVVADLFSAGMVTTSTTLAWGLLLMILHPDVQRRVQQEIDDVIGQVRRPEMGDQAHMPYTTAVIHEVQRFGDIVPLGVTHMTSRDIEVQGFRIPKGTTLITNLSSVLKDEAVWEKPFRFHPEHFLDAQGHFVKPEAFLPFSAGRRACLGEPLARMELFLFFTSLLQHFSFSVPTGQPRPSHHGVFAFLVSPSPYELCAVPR

[10] = biological target: T3, Heat shock factor protein 1 (Mus musculus, UniProt P38532); assay: inhibition of MG132-induced HSE-luciferase signal, confirmation, cell-based, NIH3T3, luminescence, dose retest (AID 2382); format: functional;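 further: NIH3T3 fibroblasts with HSF1-driven luciferase reporter stressed by proteasome inhibitor MG132; luminescence from HSF1-driven luciferase expression after 8 hours of MG132 stress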
T3 sequence (P38532 whole entry): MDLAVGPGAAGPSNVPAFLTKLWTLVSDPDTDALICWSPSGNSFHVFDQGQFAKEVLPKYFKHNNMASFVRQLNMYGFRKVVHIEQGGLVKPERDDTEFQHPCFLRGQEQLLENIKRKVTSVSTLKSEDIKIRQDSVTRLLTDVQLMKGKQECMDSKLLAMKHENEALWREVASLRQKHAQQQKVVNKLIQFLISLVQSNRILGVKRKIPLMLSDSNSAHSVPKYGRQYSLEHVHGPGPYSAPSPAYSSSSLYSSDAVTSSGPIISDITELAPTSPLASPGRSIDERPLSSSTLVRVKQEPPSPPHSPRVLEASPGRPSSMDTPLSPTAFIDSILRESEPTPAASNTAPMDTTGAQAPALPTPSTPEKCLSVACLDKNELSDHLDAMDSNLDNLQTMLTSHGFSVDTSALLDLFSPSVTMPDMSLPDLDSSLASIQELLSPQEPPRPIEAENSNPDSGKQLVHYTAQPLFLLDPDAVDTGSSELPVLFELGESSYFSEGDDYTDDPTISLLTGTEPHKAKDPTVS

Sequence of Cytochrome P450 2C9 (P11712 whole entry): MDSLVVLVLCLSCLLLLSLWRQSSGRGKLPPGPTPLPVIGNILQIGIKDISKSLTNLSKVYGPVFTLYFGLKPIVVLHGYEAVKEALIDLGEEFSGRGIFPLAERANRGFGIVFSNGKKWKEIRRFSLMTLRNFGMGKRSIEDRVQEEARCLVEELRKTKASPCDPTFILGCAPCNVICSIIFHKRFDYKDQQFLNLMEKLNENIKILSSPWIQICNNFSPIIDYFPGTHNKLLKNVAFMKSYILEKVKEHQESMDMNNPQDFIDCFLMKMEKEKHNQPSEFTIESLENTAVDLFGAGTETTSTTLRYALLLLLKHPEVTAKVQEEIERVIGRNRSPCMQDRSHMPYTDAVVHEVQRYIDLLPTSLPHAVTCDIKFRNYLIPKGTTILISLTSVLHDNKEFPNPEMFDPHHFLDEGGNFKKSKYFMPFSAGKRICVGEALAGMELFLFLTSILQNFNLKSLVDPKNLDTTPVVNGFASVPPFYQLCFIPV
Sequence of Cytochrome P450 3A4 (P08684 whole entry): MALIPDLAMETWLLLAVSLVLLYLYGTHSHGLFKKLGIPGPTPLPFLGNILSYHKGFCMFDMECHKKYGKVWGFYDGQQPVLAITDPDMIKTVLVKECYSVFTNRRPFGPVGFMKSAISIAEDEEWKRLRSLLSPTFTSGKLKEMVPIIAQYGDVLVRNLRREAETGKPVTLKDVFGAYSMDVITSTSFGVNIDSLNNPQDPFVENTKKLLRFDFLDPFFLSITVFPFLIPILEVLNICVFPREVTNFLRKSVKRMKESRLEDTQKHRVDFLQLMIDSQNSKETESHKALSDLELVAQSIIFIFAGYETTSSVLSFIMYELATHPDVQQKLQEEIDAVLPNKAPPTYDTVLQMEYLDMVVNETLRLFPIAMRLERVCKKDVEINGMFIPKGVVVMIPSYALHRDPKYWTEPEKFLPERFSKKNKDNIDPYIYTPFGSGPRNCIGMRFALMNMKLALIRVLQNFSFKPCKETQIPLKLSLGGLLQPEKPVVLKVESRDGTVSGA

SMILES: C[C@]1(C2CCCC2)Cc2cc(OCC(=O)O)c(Cl)c(Cl)c2C1=O
- AC50 [1]: 12.6 µM (inconclusive)
- AC50 [2]: 39.8 µM (inconclusive)

SMILES: COc1ccccc1-c1nccc(NCc2cnc(C)cn2)n1
- AC50 [1]: 39.8 µM (inconclusive)

SMILES: CCNc1ncc2nc(-c3ccc(Cl)cc3)c(=O)n(-c3ccccc3)c2n1
- AC50 [3]: 1 µM (inconclusive)

SMILES: COc1ccc(/C=C2\C(=O)c3ccccc3OC2c2ccccc2)cc1 (centres undefined)
- AC50 [4]: 1.12 µM (active)

SMILES: Cl/C(=N\c1cccc2ccccc12)N(c1ccccc1)c1ccccc1
- AC50 [1]: 3.98 µM (inconclusive)
- AC50 [3]: 1 µM (inconclusive)

SMILES: CCCCNC(=O)c1cn(CC(C)C)c(=O)c2c1c1ccccc1n2C
- EC50 [5]: 15.5 µM (active)
- EC50 [6]: > 150 µM (not active)
- EC50 [7]: > 150 µM (not active)

SMILES: COC(=O)[C@@]1(Cc2ccccc2)[C@H]2c3cc(C(=O)N4CCCC4)n(Cc4c(CO)ncc(C)c4O)c3C[C@H]2CN1C(=O)c1ccccc1
- AC50 [3]: 5.01 µM (inconclusive)

SMILES: O=C(Nc1ccc(Cl)cc1C(=O)c1ccccc1)c1ccco1
- AC50 [1]: 22.4 µM (inconclusive)
- AC50 [2]: 3.98 µM (inconclusive)

SMILES: CCC12C=CCN3CCC4(c5cc(Br)c(OC)cc5N(C)C4C(O)(C(=O)OC)C1OC(C)=O)C32 (centres undefined)
- AC50 [1]: 39.8 µM (inconclusive)
- AC50 [8]: 11.2 µM (inconclusive)
- AC50 [2]: 22.4 µM (inconclusive)

SMILES: OCCCNc1nc(-c2ccccc2)c2cc(Br)ccc2n1
- AC50 [4]: 24 µM (active)

SMILES: O=C(c1ccc(CSc2ccccc2)cc1)N1CCN(c2ccccc2)CC1
- AC50 [4]: 3.26 µM (active)

SMILES: CN1CCN(c2ncc3nc(-c4cccs4)c(=O)n(C[C@H]4CCCO4)c3n2)CC1
- AC50 [1]: 10 µM (inconclusive)

SMILES: Oc1c(C(O)(c2ccccc2)c2ccc3ccccc3c2O)ccc2ccccc12
- AC50 [9]: 3.98 µM (inconclusive)
- AC50 [3]: 1 µM (inconclusive)

SMILES: O=C1C2C(c3ccccc3)CC=CC2[C@H](c2ccc(C(F)(F)F)cc2)N1Cc1ccccc1 (some centres undefined)
- AC50 [4]: 5.21 µM (active)

SMILES: CC(=O)Nc1cccc(C(=O)OC(C(=O)c2ccc(C)c(C)c2)c2ccccc2)c1 (centres undefined)
- AC50 [9]: 17.8 µM (inconclusive)
- AC50 [3]: 22.4 µM (inconclusive)

SMILES: CC1(C)Cc2c(sc3c2C(=O)N(c2ccccc2)C2=NCCN23)CS1
- AC50 [3]: 22.4 µM (inconclusive)

SMILES: CC(C)(C)N(Cc1ccccc1)C(=O)c1cc2ccccc2o1
- AC50 [4]: 0.407 µM (active)

SMILES: CCOC(=O)c1sc2c(c1C)c(=O)c(C(=O)OCC)cn2CC
- AC50 [3]: 25.1 µM (inconclusive)

SMILES: Cc1cc2nc(CSc3ccccc3)cc(O)n2n1
- EC50 [6]: > 150 µM (not active)

SMILES: CC(C)(C)c1cc(C(=O)Nc2ccc(F)cc2)n(Cc2ccc(F)cc2)n1
- EC50 [5]: 7.02 µM (active)
- EC50 [6]: 2.85 µM (active)
- EC50 [7]: 10.3 µM (active)

SMILES: O=C(Nc1ccc2c(c1)OCO2)c1cc(-c2cccc(O)c2)on1
- AC50 [4]: 0.715 µM (active)

SMILES: NNC(=O)c1nn(-c2ccc(Cl)cc2)ccc1=O
- AC50 [1]: 25.1 µM (inconclusive)

SMILES: COc1ccc(CNCC(O)(c2ccc(Cl)cc2)c2ccc(Cl)cc2)cc1
- EC50 [5]: 3.01 µM (active)
- EC50 [6]: 19.7 µM (active)
- EC50 [7]: 17.9 µM (active)

SMILES: COc1ccc(-c2cc([C@H]3[C@@H]4C=CCC[C@@]4(C)C(=O)N3Cc3ccccc3)ccc2F)cc1OC
- AC50 [4]: 3.92 µM (active)

SMILES: NC(=O)c1cc(C(=O)Cc2ccccc2)c[nH]1
- EC50 [5]: 2.27 µM (active)
- EC50 [6]: 107 µM (active)
- EC50 [7]: > 150 µM (not active)

SMILES: COc1ccc(NC(=O)CSc2nncn2C)c([N+](=O)[O-])c1
- AC50 [1]: 22.4 µM (inconclusive)
- AC50 [2]: 14.1 µM (inconclusive)

SMILES: CCCC(c1nnnn1CC1CCCO1)N1CCN(c2cc(Cl)ccc2C)CC1 (centres undefined)
- AC50 [4]: 3.53 µM (active)

SMILES: COC(=O)c1ccc(CN(c2ccc(C(=O)O)c(O)c2)S(=O)(=O)c2ccc(Cl)c([N+](=O)[O-])c2)cc1
- EC50 [5]: 1.48 µM (active)
- AC50 [4]: 4.38 µM (active)
- EC50 [7]: 5.96 µM (active)

SMILES: CC(=O)NCCNc1ncnc2ccc(-c3ccc(C(=O)N(C)C)cc3)cc12
- AC50 [3]: 25.1 µM (inconclusive)

SMILES: O=C1[C@H]2[C@H]3[C@H](O)[C@H](O)C/C(=N/OC[C@@H](O)COCc4ccco4)[C@H]3CC[C@@H]2C(=O)N1C1CCCCC1
- AC50 [1]: 3.98 µM (inconclusive)

SMILES: O=C(CSc1nnc(CNc2ccc(F)cc2)o1)N1c2ccccc2Sc2ccccc21
- AC50 [3]: 10 µM (inconclusive)

SMILES: COc1cccc(-c2sc3ccc(OC)cc3c2C#CC2(O)CCCCC2)c1
- AC50 [4]: 3.74 µM (active)

SMILES: COc1cc(C(=O)NC(=S)Nc2ccc(Cc3ccncc3)cc2)cc(OC)c1OC
- EC50 [5]: 2.84 µM (active)
- EC50 [6]: > 150 µM (not active)
- EC50 [7]: 25 µM (active)

SMILES: CC1CCCC(NC(=O)C2CCN(S(=O)(=O)N3CCC4(CC3)OCCO4)CC2)C1C (centres undefined)
- AC50 [1]: 14.1 µM (inconclusive)
- AC50 [8]: 6.31 µM (inconclusive)
- AC50 [2]: 39.8 µM (inconclusive)

SMILES: Cc1ccccc1NS(=O)(=O)c1ccc2ncc(C(=O)N(C)Cc3ccco3)c(O)c2c1
- AC50 [1]: 0.794 µM (inconclusive)
- AC50 [9]: 17.8 µM (inconclusive)

SMILES: Cc1cccc(NC(=S)c2nc3ccccc3s2)c1
- AC50 [1]: 3.98 µM (inconclusive)
- AC50 [9]: 35.5 µM (inconclusive)

SMILES: CCCCOC(=O)CSCC(=O)Nc1cc(C)on1
- AC50 [3]: 25.1 µM (inconclusive)
- EC50 [10]: > 195 µM (not active)
- AC50 [2]: 2.51 µM (inconclusive)

SMILES: COc1ccccc1N1CCN(C(=O)/C=C/c2c(Cl)nc3ccccn23)CC1
- EC50 [5]: 1.25 µM (active)
- EC50 [6]: > 150 µM (not active)
- EC50 [7]: 12.7 µM (active)

SMILES: Cc1ccccc1C(=O)Oc1cccc(Nc2ncnc3ccccc23)c1
- EC50 [5]: 5.76 µM (active)
- EC50 [6]: 34.6 µM (active)
- EC50 [7]: > 150 µM (not active)

SMILES: CCOc1ccc(-c2nnc3ccc(SCC(=O)NCc4ccco4)nn23)cc1
- AC50 [1]: 7.94 µM (inconclusive)
- AC50 [8]: 1 µM (inconclusive)
- AC50 [3]: 15.8 µM (inconclusive)

SMILES: Oc1nc(Nc2cccc(Cl)c2)sc1/C=C1\C=Nc2ccccc21
- AC50 [4]: 1.91 µM (active)

SMILES: CCc1nc(N2CCN(Cc3ccc4c(c3)OCO4)CC2)c2oc3ccccc3c2n1
- AC50 [4]: 2.71 µM (active)

SMILES: CC(C)Sc1cc(N2CCOCC2)nc(-c2ccc(Cl)cc2)n1
- AC50 [1]: 17.8 µM (inconclusive)
- AC50 [8]: 11.2 µM (inconclusive)
- AC50 [2]: 11.2 µM (inconclusive)

SMILES: Cc1ccc(CCN2CC(C(=O)N3CCC4(CC3)OCCO4)CC2=O)cc1 (centres undefined)
- AC50 [1]: 17.8 µM (inconclusive)
- AC50 [2]: 12.6 µM (inconclusive)

SMILES: COc1ccc(/C=N/NC(=O)CCc2ccccc2)cc1O
- AC50 [1]: 22.4 µM (inconclusive)
- AC50 [8]: 15.8 µM (inconclusive)

SMILES: Cc1ccc(/N=C/c2cc(C)n(C3CCCC3)c2C)cc1
- AC50 [1]: 20 µM (inconclusive)

SMILES: CO/N=C/C(=C\Nc1ccccc1)c1ncc(C(F)(F)F)cc1Cl
- AC50 [1]: 22.4 µM (inconclusive)

SMILES: O=C(O)[C@H]1CN(CCCP(=O)(O)O)CCN1
- AC50 [3]: 39.8 µM (inconclusive)
